Test results taken from patent US8772286B2, “MK2 inhibitors” (Merck Sharp & Dohme B.V., priority 2009, dated 2014).
Converted amounts (≈) assume the structure as drawn. Read-outs that look alike come from different tables or passages of the source.

Tests used:
MK2 enzyme = molecular target: T1, MK2 enzyme (Homo sapiens, UniProt P49137); test: MK2 enzyme activity, IMAP fluorescence polarization assay; format: biochemical
T1 construct: MK2 enzyme (active enzyme (peptide 46-end (Millipore))); purchased Millipore
Excerpt: In another assay the MK2 kinase activity can be determined by using an IMAP assay (Immobilized Metal Assay for Phosphochemicals—based coupled assay). IMAP is a homogeneous fluorescence polarization (FP) assay based on affinity capture of phosphorylated peptide substrates. IMAP uses fluorescein-labeled peptide substrates that, upon phosphorylation by a protein kinase, bind to so called IMAP nanoparticles, which are derivatized with trivalent metal complexes. […] In such an assay, MK2 phosphorylates a fluorescein-labeled peptide substrate (see example 14).
MK2 enzyme activity is measured using the IMAP (immobilized metal ion affinity-based fluorescence polarization) assay as outlined below.
The enzyme is diluted to 100 U/mL the day before use in KR buffer (10 mM Tris-HCl, 10 mM MgCl2, 0.01% Tween-20, 0.05% NaN3, 2 mM DTT, pH 7.2) and stored overnight at −20° C.
The dilutions in DMSO are then diluted 50-fold in KR-buffer of which 5 μl is used in the assay, leading to a final compound concentration range in the assay from 10 μM to 0.316 nM.
After 60 min incubation at room temperature in the dark the FP signal is read. Fluorescence at 535 nm is measured using parallel and perpendicular filters to determine differences in rotation due to binding of the phosphorylated substrate peptide to the beads. Values are calculated as percentage of the difference in readout (ΔmPi) of the controls with and without ATP. EC50 values are determined by curve fitting of the experimental results using Activity Base.

[1] = Solubility determination of MK2 inhibitors (kinetic aqueous solubility, UPLC); format: physicochemical; details: aqueous buffer (system solution from pION inc.), 22 °C, pH 7.4, aqueous buffer, kinetic from dmso stock
Description: The solubility can be determined using the Automated Kinetic Aqueous Solubility (AKASol) method, which is an HPLC-UV based method. The method is derived from the classical saturated shake-flask solubility method which has been adapted to the 96-well microtitre plate format, allowing the use of DMSO stock solutions. The solubility is determined by measuring the amount of compound in a saturated aqueous solution, quantified by an external calibration curve of the compound dissolved in DMSO. The solubility (mg/L) is measured at pH 7.4, at room temperature and the final concentration of DMSO in the sample solution is 1%.
The samples were prepared from 10 mM DMSO stock solutions. For each compound under investigation, a volume (9 μL) of the DMSO stock solution is transferred from the DMSO stock solution into 891 μL of buffer solution (system solution from pION inc.) in a 96 deep well plate, which equates to approximately 1% DMSO, using the Packard Multiprobe II robot liquid handling system. The pH of the buffer is manually adjusted at pH 7.4 by adding NaOH. This procedure is done in duplicate for each sample. After shaking for 24 h on a vortex mixer (Heidolph, Titramax 101) at 450 rpm and at room temperature (21-23° C.), 300 uL of the incubated sample is transferred from the deep well plate to a filter plate (PVDF, 0.45 um) on a vacuum manifold. To the filtrate (150 uL) 1-propanol (50 uL) is added to suppress precipitation and this solution is then analysed by UPLC. The solubility is determined using the calibration line previously prepared.
Preparation of the Standards and Built up of a Calibration Line
The calibration line is built with different concentrations of the test compound (standards), prepared from the same 10 mM DMSO stock solution. A volume (7 uL) from the same DMSO stock solution was diluted with DMSO (273 uL) leading to a solution with concentration of 0.25 mM. From this solution, three different injection volumes (0.2, 1, 1.8 uL) were injected on UPLC. The respective peak areas are plotted against amount of compound to build up the calibration line. The calibration line is used to determine the amount of dissolved compound in each sample, selecting the injection that gave peak areas closest to the peak area range of the calibration standards.

[2] = Table 1, compound of Formula (I) with spiro ring, MK2 IMAP assay, read-out: pEC50, Formula (I) (converted)
[3] = Table 1, compound of Formula (I) with spiro ring, pH 7.4, read-out: Solubility pH 7.4 (mg/L), Formula (I)
[4] = Table 2, compound of Formula (I) with amine-containing spiro ring, pH 7.4, read-out: Solubility pH 7.4 (mg/L), Formula (I)
[5] = MK2 IMAP assay, 1 μM ATP, 30 min pre-incubation, 2 h room temperature, read-out: pEC50 value (converted)
[6] = pH 7.4, room temperature, about 1% DMSO, 24 h shaking, read-out: solubility
[7] = Table 1, comparison compound of Formula (XV) without spiro ring, pH 7.4, read-out: Solubility pH 7.4 (mg/L), Formula (XV)
[8] = Table 2, comparison compound of Formula (XVI), spiro ring without amine, MK2 IMAP assay, read-out: pEC50, Formula (XVI) (converted)

T1 sequence (P49137 46-400 limits assumed): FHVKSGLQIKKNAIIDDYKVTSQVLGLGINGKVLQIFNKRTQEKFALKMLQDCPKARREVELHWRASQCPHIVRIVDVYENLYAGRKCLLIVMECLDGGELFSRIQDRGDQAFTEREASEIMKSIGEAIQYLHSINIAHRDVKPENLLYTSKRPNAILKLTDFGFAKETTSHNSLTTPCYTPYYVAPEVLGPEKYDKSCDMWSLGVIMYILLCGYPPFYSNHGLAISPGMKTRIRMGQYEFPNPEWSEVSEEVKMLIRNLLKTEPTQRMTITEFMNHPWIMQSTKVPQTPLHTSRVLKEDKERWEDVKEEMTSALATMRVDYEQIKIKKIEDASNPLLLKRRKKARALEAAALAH

| Compound | EC50 (MK2 enzyme; [5]) | solubility at 24 h [1, 6] | also measured |
| --- | --- | --- | --- |
| O=C1NCC2(CCNCC2)c2[nH]c(-c3ccnc(-c4cc5ccccc5o4)n3)cc21 [16_6 Formula (I)] | – | – | EC50 (MK2 enzyme; [2]): 0.00631 µM; solubility at 24 h [1, 3]: 84 mg/L |
| O=C1NCC2(CCNC2)c2[nH]c(-c3ccnc(-c4cnc5ccccc5c4)n3)cc21 (stereo not shown) [17_3 Formula (I)] | – | – | EC50 (MK2 enzyme; Table 2, compound of Formula (I) with amine-containing spiro ring, MK2 IMAP assay, read-out: pEC50, Formula (I) (converted)): 0.00251 µM; solubility at 24 h [1, 4]: 37 mg/L |
| O=C1NCC2(CCNCC2)c2[nH]c(-c3ccnc(-c4cc5ccccc5o4)c3)cc21 [16_7 Formula (I)] | – | – | EC50 (MK2 enzyme; [2]): 0.00316 µM; solubility at 24 h [1, 3]: 66 mg/L |
| O=C1NCCc2[nH]c(-c3ccnc(-c4cnc5ccccc5c4)n3)cc21 [16_2 Formula (XV)] | – | – | EC50 (MK2 enzyme): 0.01 µM |
| O=C(Nc1cc(-c2cc3c([nH]2)C2(CCNCC2)CNC3=O)ccn1)c1ccc(C(F)(F)F)cc1 [Example 12—1, N-(4-(4′-oxo-1′,4′,5′,6′-tetrahydrospiro[piperidine-4,7′-pyrrolo[3,2-c]pyridine]-2′-yl)pyridin-2-yl)-4-(trifluoromethyl)benzamide] | ≤ 0.00316 µM | 20 to 50 mg/L (≈ 42.6 to 107 µM) | – |
| CC(=O)NCCCN1CCC2(CC1)CNC(=O)c1cc(-c3ccnc(-c4cc5ccccc5o4)n3)[nH]c12 [3—2, N-(3-(2′-(2-(benzofuran-2-yl)pyrimidin-4-yl)-4′-oxo-1′,4′,5′,6′-tetrahydrospiro[piperidine-4,7′-pyrrolo[3,2-c]pyridine]-1-yl)propyl)acetamide] | 0.0316 to 0.316 µM | ≥ 50 mg/L | – |
| CC(=O)c1ccc(-c2nccc(-c3cc4c([nH]3)CCNC4=O)n2)cc1 [16_8 Formula (XV)] | – | – | EC50 (MK2 enzyme; Table 1, comparison compound of Formula (XV) without spiro ring, MK2 IMAP assay, read-out: pEC50, Formula (XV) (converted)): 0.126 µM; solubility at 24 h [1, 7]: 3 mg/L |
| CCN1CCC2(CC1)CNC(=O)c1cc(-c3ccnc(-c4cc5ccccc5o4)n3)[nH]c12 [2—2, 2′-(2-(benzofuran-2-yl)pyrimidin-4-yl)-1-ethyl-5′,6′-dihydrospiro[piperidine-4,7′-pyrrolo[3,2-c]pyridin]-4(1′H)-one] | – | ≥ 50 mg/L | EC50 (MK2 enzyme): 0.0316 to 0.316 µM |
| O=C1NCC2(CCCC2)c2[nH]c(-c3ccnc(-c4cccc(F)c4)n3)cc21 [17_4 Formula (XVI)] | – | – | EC50 (MK2 enzyme; [8]): 0.316 µM |
| COc1cncc(-c2nccc(-c3cc4c([nH]3)C3(CCNCC3)CNC4=O)n2)c1 [1—3, 2′-(2-(5-methoxypyridin-3-yl)pyrimidin-4-yl)-5′,6′-dihydrospiro[piperidine-4,7′-pyrrolo[3,2-c]pyridin]-4′(1′H)-one] | 0.00316 to 0.0316 µM | 20 to 50 mg/L (≈ 51.2 to 128 µM) | – |
| O=C1NCC2(CCNCC2)c2[nH]c(-c3ccnc(-c4cnc5ccccc5c4)n3)cc21 [17_2 Formula (I)] | – | – | pEC50, Formula (I) (MK2 enzyme; Table 2, compound of Formula (I) with amine-containing spiro ring, MK2 IMAP assay): 8.2; solubility at 24 h [1, 4]: 23 mg/L |
| O=C(Nc1nccc(-c2cc3c([nH]2)C2(CCCNC2)CNC3=O)n1)c1cccc(OC(F)(F)F)c1 (stereo not shown) [13—2, N-(4-(4′-oxo-1′,4′,5′,6′-tetrahydrospiro[piperidine-3,7′-pyrrolo[3,2-c]pyridine]-2′-yl)pyrimidin-2-yl)-3-(trifluoromethoxy)benzamide] | 0.0316 to 0.316 µM | 20 to 50 mg/L (≈ 41.1 to 103 µM) | – |
| CC(=O)c1ccc(-c2nccc(-c3cc4c([nH]3)C3(CCNCC3)CNC4=O)n2)cc1 [16_8 Formula (I)] | – | – | EC50 (MK2 enzyme; [2]): 0.00631 µM; solubility at 24 h [1, 3]: 35 mg/L |
| CC(C)COc1ccc(-c2nccc(-c3cc4c([nH]3)C3(CCNCC3)CNC4=O)n2)cc1 [1—27, 2′-(2-(4-isobutoxyphenyl)pyrimidin-4-yl)-5′,6′-dihydrospiro[piperidine-4,7′-pyrrolo[3,2-c]pyridin]-4′(1′H)-one] | 0.00316 to 0.0316 µM | ≥ 50 mg/L | – |
| O=C1NCC2(CCNCC2)c2[nH]c(-c3ccnc(-c4cnc5ccccc5c4)n3)cc21 [16_2 Formula (I)] | – | – | pEC50, Formula (I) (MK2 enzyme; Table 1, compound of Formula (I) with spiro ring, MK2 IMAP assay): 8.2; solubility at 24 h [1, 3]: 23 mg/L |
| O=C1NCCc2[nH]c(-c3ccnc(-c4cnc5ccccc5c4)c3)cc21 [16_1 Formula (XV)] | – | – | solubility at 24 h [1, 7]: 2 mg/L |
| O=C1NCC2(CCCC2)c2[nH]c(-c3ccnc(-c4cnc5ccccc5c4)n3)cc21 [17_3 Formula (XVI)] | – | – | EC50 (MK2 enzyme; [8]): 0.251 µM |

The next lines start with results.

| EC50 (MK2 enzyme; [5]) | solubility at 24 h [1, 6] | Compound | also measured |
| --- | --- | --- | --- |
| 0.00316 to 0.0316 µM | ≥ 50 mg/L | NC(=O)c1cccc(-c2nccc(-c3cc4c([nH]3)C3(CCNCC3)CNC4=O)n2)c1 [1—29, 3-(4-(4′-oxo-1′,4′,5′,6′-tetrahydrospiro[piperidine-4,7′-pyrrolo[3,2-c]pyridine]-2′-yl)pyrimidin-2-yl)benzamide] | – |
| 0.00316 to 0.0316 µM | ≥ 50 mg/L | O=C1NCC2(CCNCC2)c2[nH]c(-c3ccnc(-c4cc(Cl)cc(Cl)c4)n3)cc21 [1—25, 2′-(2-(3,5-dichlorophenyl)pyrimidin-4-yl)-5′,6′-dihydrospiro[piperidine-4,7′-pyrrolo[3,2-c]pyridin]-4′(1′H)-one] | – |
| 0.00316 to 0.0316 µM | ≥ 50 mg/L | CC(=O)c1cccc(-c2nccc(-c3cc4c([nH]3)C3(CCNCC3)CNC4=O)n2)c1 [1—30, 2′-(2-(3-acetylphenyl)pyrimidin-4-yl)-5′,6′-dihydrospiro[piperidine-4,7′-pyrrolo[3,2-c]pyridin]-4′(1′H)-one] | – |
| 0.0316 to 0.316 µM | ≥ 50 mg/L | COc1cc(-c2nccc(-c3cc4c([nH]3)C3(CCNCC3)CNC4=O)n2)ccc1O [1—20, 2′-(2-(4-hydroxy-3-methoxyphenyl)pyrimidin-4-yl)-5′,6′-dihydrospiro[piperidine-4,7′-pyrrolo[3,2-c]pyridin]-4′(1′H)-one] | – |
| 0.00316 to 0.0316 µM | ≥ 50 mg/L | O=C1NCC2(CCNCC2)c2[nH]c(-c3ccnc(-c4nc5ccccc5s4)n3)cc21 [9—2, 2′-(2-(benzo[d]thiazol-2-yl)pyrimidin-4-yl)-5′,6′-dihydrospiro[piperidine-4,7′-pyrrolo[3,2-c]pyridin]-4′(1′H)-one] | – |
| 0.0316 to 0.316 µM | ≥ 50 mg/L | O=C1NCC2(CCNCC2)c2[nH]c(-c3ccnc(-c4cccc(-c5ccccc5)c4)n3)cc21 [1—33, 2′-(2-(biphenyl-3-yl)pyrimidin-4-yl)-5′,6′-dihydrospiro[piperidine-4,7′-pyrrolo[3,2-c]pyridin]-4′(1′H)-one] | – |
| 0.00316 to 0.0316 µM | ≥ 50 mg/L | O=C1NCC2(CCNCC2)c2[nH]c(-c3ccnc(-c4ccc(C(F)(F)F)cc4)n3)cc21 [1—17, 2′-(2-(4-(trifluoromethyl)phenyl)pyrimidin-4-yl)-5′,6′-dihydrospiro[piperidine-4,7′-pyrrolo[3,2-c]pyridin]-4′(1′H)-one] | – |
| 0.00316 to 0.0316 µM | 20 to 50 mg/L (≈ 53 to 132 µM) | O=C1NCC2(CCNCC2)c2[nH]c(-c3ccnc(-c4cccc(F)c4)n3)cc21 [1—5, 2′-(2-(3-fluorophenyl)pyrimidin-4-yl)-5′,6′-dihydrospiro[piperidine-4,7′-pyrrolo[3,2-c]pyridin]-4′(1′H)-one] | – |
